System: Src and Abl kinases
Experiment: Kinase inhibition assay with different kinase inhibitors on peptide array with Abl and Src peptide substrates
Assay type: biochemical
Details: FIG. 23; Src and Abl kinases plus one of three inhibitors
Description: Activity is measured using peptide arrays with Abl and Src peptide substrates.

## COc1cc(Nc2c(C#N)cnc3cc(OCCCN4CCN(C)CC4)c(OC)cc23)c(Cl)cc1Cl [SKI606]
  specificity of the kinase inhibitor for their respective kinase: expected specificity

From patent US20090176664A1, “High density peptide arrays containing kinase or phosphatase substrates” (priority 2007, published 2009)
